In PubChem BioAssay (NCI) one finds GI50 and TGI data, which are given here for one compound.

Each structure is given as a SMILES string.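 Cells were grown in 96-well plates and exposed to each compound for 48 hours at five concentrations; endpoints were interpolated linearly between bracketing concentrations, or set to the highest concentration if not reached. At the GI50, growth is halved. At the TGI there is no net growth.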 Some results are limits rather than exact numbers.

Among the test systems are HCT-116 colon; HL-60(TB) leukemia; KM12 colon; RPMI-8226 leukemia; SF-295 CNS; SK-MEL-28 melanoma; SK-OV-3 ovarian; SN12C renal; SNB-75 CNS; TK-10 renal.
Common to all, as to experiment: NCI tumour cell line growth inhibition, 48 h

For `Nc1ncnc2c1c(C(=O)NO)cn2C1OC(CO)C(O)C1O` (stereo not drawn), the GI50 is 175 nM in the test with HCT-116 colon; 158 nM with HL-60(TB) leukemia; 267 nM with KM12 colon; 282 nM in the test on RPMI-8226 leukemia; 193 nM in the test on SF-295 CNS; 479 nM with SK-MEL-28 melanoma. Moreover, the GI50 in the test on SK-OV-3 ovarian is 239 nM; in the test on SN12C renal, 244 nM; with SNB-75 CNS it was 509 nM; in the test on TK-10 renal, 572 nM. In addition, the TGI was more than 23800 nM in the test on HCT-116 colon; 457 nM in the test on HL-60(TB) leukemia; 1130 nM in the test with SF-295 CNS; 3630 nM in the test on SK-MEL-28 melanoma; 2070 nM in the test with SK-OV-3 ovarian; 1240 nM with SN12C renal. Further, the TGI in the test with SNB-75 CNS is 8040 nM; in the test on TK-10 renal, more than 31400 nM.
